Results on five compounds are retold here after patent publication US7723070B2, “Overexpression of aminoacyl-tRNA synthetases for efficient production of engineered proteins containing amino acid analogues” (California Institute of Technology, priority 2000, dated 2010).

Assay [1] concerns the target T1, methionyl tRNA synthetase (MetRS) (Escherichia coli, UniProt P00959).
T1 sequence (P00959 1-548 limits assumed): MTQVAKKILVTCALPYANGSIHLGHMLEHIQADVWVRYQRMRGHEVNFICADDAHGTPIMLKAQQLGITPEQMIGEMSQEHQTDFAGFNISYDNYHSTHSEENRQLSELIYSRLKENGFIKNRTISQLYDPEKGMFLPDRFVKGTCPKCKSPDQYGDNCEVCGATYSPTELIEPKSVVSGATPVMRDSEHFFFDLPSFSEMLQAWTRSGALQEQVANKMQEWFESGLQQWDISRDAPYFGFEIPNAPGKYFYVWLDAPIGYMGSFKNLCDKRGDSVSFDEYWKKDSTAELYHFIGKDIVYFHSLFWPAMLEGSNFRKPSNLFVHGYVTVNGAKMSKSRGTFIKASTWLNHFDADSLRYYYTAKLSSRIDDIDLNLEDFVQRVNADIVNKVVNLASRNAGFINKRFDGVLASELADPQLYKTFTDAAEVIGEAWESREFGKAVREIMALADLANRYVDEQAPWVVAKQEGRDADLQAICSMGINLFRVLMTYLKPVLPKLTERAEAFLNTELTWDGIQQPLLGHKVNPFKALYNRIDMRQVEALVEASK
Conditions: cited from earlier work.

For assay [2], the system named is B834(DE3)/pQE15-MRS/pREP4. It is filed as cell-based, E. coli. The text has this: A gene encoding a mutant MetRS was removed from plasmid pBSM547W305F (D. Fourmy, Y. Mechulam, S. Brunie, S. Blanquet, G. Fayat, FEBS Lett. 1991, 292, 259-263) by treatment with restriction enzymes Sac I and Kpn I. The Sac I/Kpn I fragment (2450 bp) was ligated into the cloning vector pUC19-Nhelink, which was constructed to permit the cohesive ends of the mutant MetRS gene to be changed to Nhe I. The MetRS gene with Nhe I cohesive ends was then ligated into the unique Nhe I site of the plasmid pQE15 (Qiagen, Inc., Santa Clarita, Calif., USA) to yield plasmid pQE15-W305F (FIG. 20) (SEQ ID NO.: 2).
Plasmid DNA from all B834(DE3)/pQE15-MRS/pREP4 cultures used for protein expression experiments was sequenced to confirm that it encoded wild-type MetRS. […] The expression plasmid also encodes an N-terminal hexahistidine sequence for mDHFR which permits purification of the target protein by immobilized metal chelate affinity chromatography (The Qiagen Expressionist, 1992, p. 45). Furthermore, mDHFR contains 8 methionine residues which can be replaced by methionine analogues. A control bacterial host, which produces only mDHFR and normal cellular levels of MetRS, was prepared by transforming B834(DE3) with pREP4 and pQE15.
Methionine analogues were synthesized via alkylation of diethylacetamidomalonate, as previously described (As described in Example I, infra; J. C. M. van Hest, D. A. Tirrell, FEBS Lett. 1998, 428, 68-70). Cultures of B834(DE3)/pQE15-MRS/pREP4 or B834(DE3)/pQE15/pREP4 or CAG18491/pQE15-MRS/pREP4 or CAG18491/pQE15/pREP4 in M9AA media were grown to an optical density of 0.90, and the cells were sedimented by centrifugation. The M9AA medium was prepared by supplementing sterile M9 medium with […] of each of the amino acids, 1 mM MgSO4, 0.2 wt % glucose, 1 mg/ml thiamine chloride, and […] calcium chloride. The antibiotics ampicillin and kanamycin were added at concentrations of 200 mg/l and 35 mg/l, respectively.
Cells were washed three times with M9 salts and resuspended to an optical density of 0.90 in M9 test media containing 19 amino acids plus 1) neither methionine nor analogue (negative control); 2) methionine (60 mg/liter, positive control); or 3) an analogue of interest (60 mg/liter). To test the effect of increasing the level of supplementation of the analogues, a set of experiments was also conducted in which the medium was supplemented with 500 mg/liter of methionine or the amino acid analogue. Expression of mDHFR was induced by addition of 0.4 mM isopropyl β-D-thiogalactopyranoside (IPTG), and protein synthesis was monitored after 4.5 hours.

The subject of assay [3] is E. coli strain CAG18491/pQE15/pREP4. The assay can be described thus: Translational activity: mDHFR synthesis in methionine-depleted cultures of conventional host. Conditions: analogue in place of methionine at the time of inoculation. It is filed as cell-based.
In assay [4] the test system is E. coli cells. Conditions: antagonist for methionine; cited from earlier work.

One may read the Km as the concentration of substrate that gives half-maximal velocity. Consider `CSCC[C@H](N)C(=O)O` [Analogue 1, L-methionine, reference compound], for which, in assay [1], the “kcat, literature value” was 13.5 s⁻¹. The Km in assay [1] (read-out: Km, previously reported, literature value) was 24 ± 2 µM. The Protein yields entry in assay [2] (supplemented cultures) was “approximately 35 mg/liter”.

In the case of `C/C=C/CC(N)C(=O)O` (racemic) [Analogue 5, trans-2-amino-4-hexenoic acid], in assay [2], the “incorporation of the analogue at the initiator position (N-terminal sequencing)” value is 96±2%, the “mDHFR produced relative to cultures supplemented with methionine” value is 23%, the “overall extent of incorporation of the analogue (amino acid analysis)” value is 91±2% and the “replacement of methionine (integration of NMR spectrum)” value stood at 90±6%. In addition, the “mDHFR expression (SDS-PAGE)” value in assay [2] (60 mg/L) is “strong induction of mDHFR”. Also, the “methionine content by amino acid analysis” value in assay [2] (expected value 3.8 mol %) is on record as 0.3 mol %.

Consider `C=CCCC(N)C(=O)O` (racemic) [Analogue 2, DL-2-amino-5-hexenoic acid], for which the “growth of cultures in minimal media with methionine replaced by analogue at inoculation” value in assay [3] was “did not grow”.

For the compound `C#CCCC(N)C(=O)O` (racemic) [Analogue 3, DL-homopropargylglycine], the “growth of cultures in minimal media with methionine replaced by analogue at inoculation” value in assay [3] is given as “did not grow”.

For `C/C=C\CC(N)C(=O)O` (racemic) [Analogue 4, cis-2-amino-4-hexenoic acid], the “effect on growth of E. coli cells” value in assay [4] is given as “inhibiting the growth”.
